Measurements reported in patent US7718641B2, “Pyrrolo [3,4-H] isoquinoline compounds and methods for modulating gated ion channels” (Aros Pharma ApS, priority 2005, dated 2010).

Biological target: T1, hASIC1a (Homo sapiens, UniProt P78348)
T1 sequence (P78348 1-528): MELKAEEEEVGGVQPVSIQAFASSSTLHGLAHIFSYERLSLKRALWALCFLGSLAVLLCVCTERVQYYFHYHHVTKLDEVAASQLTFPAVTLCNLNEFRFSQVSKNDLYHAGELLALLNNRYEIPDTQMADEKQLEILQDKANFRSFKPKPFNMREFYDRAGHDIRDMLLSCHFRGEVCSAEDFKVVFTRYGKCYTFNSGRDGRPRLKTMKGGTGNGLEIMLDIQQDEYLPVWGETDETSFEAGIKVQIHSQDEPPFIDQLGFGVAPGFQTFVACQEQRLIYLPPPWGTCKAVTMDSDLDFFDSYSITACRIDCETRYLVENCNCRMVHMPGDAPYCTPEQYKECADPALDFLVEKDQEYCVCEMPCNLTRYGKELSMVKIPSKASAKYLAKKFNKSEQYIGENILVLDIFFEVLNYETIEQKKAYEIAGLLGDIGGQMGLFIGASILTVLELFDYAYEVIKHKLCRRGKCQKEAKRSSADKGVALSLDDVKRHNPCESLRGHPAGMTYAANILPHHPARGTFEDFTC
Test: Calcium-imaging (FLIPR, Fluo-4) of acid (MES)-induced calcium response in ASIC1a expressing HEK293 cells
Assay type: cell-based
Set-up: expressed in transfected cells; host or cells: HEK293
Settings: calcium mobilization assay, MES-induced calcium response, HEK293, n=3-7
Description: ASIC1a expressing HEK293 cells are grown in culture medium (DMEM with 10% FBS), in polystyrene culture flasks ([…]) at 37° C. in a humidified atmosphere of 5% CO2. Confluency of cells should be 80-90% on day of plating. Cells are rinsed with 10 ml of PBS and re-suspended by addition of culture medium and trituration with a 25 ml pipette.
The cells are seeded at a density of approximately 1×10^6 cells/ml (100 μl/well) in black-walled, clear bottom, 96-well plates pre-treated with 10 mg/l poly-D-lysin (75 μl/well for ≧30 min). Plated cells were allowed to proliferate for 24 h before loading with dye.
Fluo-4/AM (1 mg, Molecular Probes) is dissolved in 912 μl DMSO. The Fluo-4/AM stock solution (1 mM) is diluted with culture medium to a final concentration of 2 μM (loading solution).
The culture medium is aspirated from the wells, and 50 μl of the Fluo-4/AM loading solution is added to each well. The cells are incubated at 37° C. for 30 min.
After the loading period, the loading solution is aspirated and the cells are washed twice with 100 μl modified Assay Buffer (145 mM NaCl, 5 mM KCl, 5 mM CaCl2, 1 mM MgCl2, 10 mM HEPES, pH 7.4) to remove extracellular dye. Following the second wash, 100 μl modified Assay Buffer is added to each well and the fluorescence is measured in FLIPR™ or FlexStation™ (Molecular Devices, USA), or any other suitable equipment known to the skilled in the art.
Temperature: Room temperature (20-22° C.)
First addition: 50 μl test solution at a rate of 30 μl/sec and a starting height of 100 μl.
Second addition: 50 μl MES solution (20 mM, 5 mM final concentration) at a rate of 35 μl/sec and a starting height of 150 μl.
Reading intervals: pre-incubation—10 sec×7 and 3 sec×3 antagonist phase—3 sec×17 and 10 sec×12
Addition plates (compound test plate and MES plate) are placed on the right and left positions in the FLIPR tray, respectively. Cell plates are placed in the middle position and the ASIC1a program is effectuated. FLIPR will then take the appropriate measurements in accordance with the interval settings above. Fluorescence obtained after stimulation is corrected for the mean basal fluorescence (in modified Assay Buffer).
The MES-induced peak calcium response, in the presence of test substance, is expressed relatively to the MES response alone. Test substances that block the MES-induced calcium response are re-tested in triplicates. Confirmed hits are picked for further characterization by performing full dose-response curves to determine potency of each hit compound as represented by the IC50 values (i.e., the concentration of the test substance which inhibits 50% of the MES-induced calcium response; see, for example, FIGS. 1A, 1B and 1C, and FIGS. 13A and 13B).

IC50 | Structure (SMILES)
15 to 250 nM | CCN1CCc2c(-c3ccccc3)cc3c(c2C1)NC(=O)/C3=N/O [Compound H, 5-phenyl-6,7,8,9-tetrahydro-3-(hydroxyimino)-8-ethyl-1H-pyrrolo[3,2-h]isoquinoline-2(3H)-one]
100 to 200 nM | COc1ccc(F)cc1-c1cc2c(c3c1CCN(C)C3)NC(=O)/C2=N/O [Compound A, 5-(5-fluoro-2-methoxyphenyl)-6,7,8,9-tetrahydro-3-(hydroxyimino)-8-methyl-1H-pyrrolo[3,2-h]isoquinoline-2(3H)-one]
